Data taken from ChEMBL document CHEMBL3745672, “Novel compounds reducing IRS-1 serine phosphorylation for treatment of diabetes” (Bioorg Med Chem Lett, 2016).
Active and inactive are the calls of the source. The calls are words filed in the database; no cut-off is given here.

Tests used:
[1] = target: Tyrosine-protein kinase ABL1 (Homo sapiens) (UniProt P00519); assay: Inhibition of ABL (unknown origin) at 1 uM
[2] = target: Tyrosine-protein kinase receptor UFO (Homo sapiens) (UniProt P30530); assay: Inhibition of AXL (unknown origin) at 1 uM
[3] = target: CDK2/Cyclin A2 (Homo sapiens) (UniProt P24941+P20248); assay: Inhibition of CDK2/CyclinA (unknown origin) at 1 uM; type: protein-complex assay
[4] = target: Mast/stem cell growth factor receptor Kit (Homo sapiens) (UniProt P10721); assay: Inhibition of cKIT (unknown origin) at 1 uM
[5] = target: Tyrosine-protein kinase CSK (Homo sapiens) (UniProt P41240); assay: Inhibition of CSK (unknown origin) at 1 uM
[6] = target: Epithelial discoidin domain-containing receptor 1 (Homo sapiens) (UniProt Q08345); assay: Inhibition of DDR1 (unknown origin) at 1 uM
Chain of Epithelial discoidin domain-containing receptor 1 (Homo sapiens) (Q08345 whole entry, the tested form may be a part): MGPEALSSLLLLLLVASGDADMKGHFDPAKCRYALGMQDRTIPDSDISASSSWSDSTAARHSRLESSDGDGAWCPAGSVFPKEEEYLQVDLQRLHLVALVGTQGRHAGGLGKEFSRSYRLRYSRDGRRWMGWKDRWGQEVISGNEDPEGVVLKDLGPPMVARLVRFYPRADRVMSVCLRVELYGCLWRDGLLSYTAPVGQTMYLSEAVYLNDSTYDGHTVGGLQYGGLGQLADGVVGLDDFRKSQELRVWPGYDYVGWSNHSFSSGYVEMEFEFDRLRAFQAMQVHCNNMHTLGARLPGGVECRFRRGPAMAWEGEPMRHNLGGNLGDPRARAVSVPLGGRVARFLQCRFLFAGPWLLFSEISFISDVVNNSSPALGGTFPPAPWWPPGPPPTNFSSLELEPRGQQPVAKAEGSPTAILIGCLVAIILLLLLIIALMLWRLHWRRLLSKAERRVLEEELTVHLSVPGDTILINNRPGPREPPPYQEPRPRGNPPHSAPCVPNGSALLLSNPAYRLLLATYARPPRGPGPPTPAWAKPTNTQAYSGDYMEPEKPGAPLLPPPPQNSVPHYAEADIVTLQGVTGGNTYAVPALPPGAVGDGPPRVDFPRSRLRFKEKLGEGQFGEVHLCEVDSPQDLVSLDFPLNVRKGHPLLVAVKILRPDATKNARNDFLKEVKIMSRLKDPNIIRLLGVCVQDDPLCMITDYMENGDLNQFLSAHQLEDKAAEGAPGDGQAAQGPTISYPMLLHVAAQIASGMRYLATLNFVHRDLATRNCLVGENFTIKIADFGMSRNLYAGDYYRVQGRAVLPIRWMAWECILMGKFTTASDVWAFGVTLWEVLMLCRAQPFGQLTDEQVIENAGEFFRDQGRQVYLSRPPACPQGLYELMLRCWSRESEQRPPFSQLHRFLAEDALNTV

[7] = target: Receptor-type tyrosine-protein kinase FLT3 (Homo sapiens) (UniProt P36888); assay: Inhibition of FLT3 (unknown origin) at 1 uM
[8] = target: T1, Inhibitor of nuclear factor kappa-B kinase subunit beta (Homo sapiens) (UniProt O14920); assay: Inhibition of IKKbeta (unknown origin) at 1 uM
T1 sequence (whole entry): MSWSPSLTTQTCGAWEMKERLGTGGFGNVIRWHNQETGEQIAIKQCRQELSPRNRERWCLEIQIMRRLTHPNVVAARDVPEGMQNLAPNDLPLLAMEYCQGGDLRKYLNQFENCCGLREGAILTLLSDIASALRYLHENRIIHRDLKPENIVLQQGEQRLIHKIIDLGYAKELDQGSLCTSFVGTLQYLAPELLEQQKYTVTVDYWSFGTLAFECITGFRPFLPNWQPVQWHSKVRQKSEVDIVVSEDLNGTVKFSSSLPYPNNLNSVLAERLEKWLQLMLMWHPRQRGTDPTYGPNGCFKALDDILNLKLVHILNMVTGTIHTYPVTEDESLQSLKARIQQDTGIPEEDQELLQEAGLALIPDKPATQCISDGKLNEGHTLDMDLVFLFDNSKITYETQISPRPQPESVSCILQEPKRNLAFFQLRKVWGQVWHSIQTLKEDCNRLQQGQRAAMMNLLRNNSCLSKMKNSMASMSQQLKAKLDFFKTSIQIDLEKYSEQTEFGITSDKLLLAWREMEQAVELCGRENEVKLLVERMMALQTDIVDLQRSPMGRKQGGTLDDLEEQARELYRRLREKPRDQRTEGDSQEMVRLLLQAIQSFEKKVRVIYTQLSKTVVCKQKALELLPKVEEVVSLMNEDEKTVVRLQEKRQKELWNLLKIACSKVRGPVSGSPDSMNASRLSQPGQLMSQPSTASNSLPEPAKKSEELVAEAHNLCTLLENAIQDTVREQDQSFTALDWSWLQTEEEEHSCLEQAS

[9] = target: Insulin receptor (Homo sapiens) (UniProt P06213); assay: Inhibition of INSR (unknown origin) at 1 uM
[10] = target: T2, Interleukin-1 receptor-associated kinase 4 (Homo sapiens) (UniProt Q9NWZ3); assay: Inhibition of IRAK4 (unknown origin) at 1 uM
T2 sequence (whole entry): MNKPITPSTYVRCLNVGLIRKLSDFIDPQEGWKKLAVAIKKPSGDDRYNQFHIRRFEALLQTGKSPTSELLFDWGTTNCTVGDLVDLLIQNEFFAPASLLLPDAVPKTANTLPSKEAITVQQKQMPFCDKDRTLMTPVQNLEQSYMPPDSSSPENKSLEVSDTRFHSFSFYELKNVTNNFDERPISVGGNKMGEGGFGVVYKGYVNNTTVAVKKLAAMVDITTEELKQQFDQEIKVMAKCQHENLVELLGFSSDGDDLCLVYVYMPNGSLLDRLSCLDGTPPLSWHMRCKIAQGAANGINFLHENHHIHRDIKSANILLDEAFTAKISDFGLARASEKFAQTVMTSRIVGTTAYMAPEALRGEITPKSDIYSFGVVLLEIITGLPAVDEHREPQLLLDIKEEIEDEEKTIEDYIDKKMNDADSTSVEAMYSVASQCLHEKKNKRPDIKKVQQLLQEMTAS

[11] = target: Serine/threonine-protein kinase mTOR (Homo sapiens) (UniProt P42345); assay: Inhibition of mTOR (unknown origin) at 1 uM
[12] = target: Serine/threonine-protein kinase PAK 1 (Homo sapiens) (UniProt Q13153); assay: Inhibition of PAK1 (unknown origin) at 1 uM
[13] = target: Serine/threonine-protein kinase PAK 4 (Homo sapiens) (UniProt O96013); assay: Inhibition of PAK4 (unknown origin) at 1 uM
Chain of Serine/threonine-protein kinase PAK 4 (Homo sapiens) (O96013 whole entry, looked up): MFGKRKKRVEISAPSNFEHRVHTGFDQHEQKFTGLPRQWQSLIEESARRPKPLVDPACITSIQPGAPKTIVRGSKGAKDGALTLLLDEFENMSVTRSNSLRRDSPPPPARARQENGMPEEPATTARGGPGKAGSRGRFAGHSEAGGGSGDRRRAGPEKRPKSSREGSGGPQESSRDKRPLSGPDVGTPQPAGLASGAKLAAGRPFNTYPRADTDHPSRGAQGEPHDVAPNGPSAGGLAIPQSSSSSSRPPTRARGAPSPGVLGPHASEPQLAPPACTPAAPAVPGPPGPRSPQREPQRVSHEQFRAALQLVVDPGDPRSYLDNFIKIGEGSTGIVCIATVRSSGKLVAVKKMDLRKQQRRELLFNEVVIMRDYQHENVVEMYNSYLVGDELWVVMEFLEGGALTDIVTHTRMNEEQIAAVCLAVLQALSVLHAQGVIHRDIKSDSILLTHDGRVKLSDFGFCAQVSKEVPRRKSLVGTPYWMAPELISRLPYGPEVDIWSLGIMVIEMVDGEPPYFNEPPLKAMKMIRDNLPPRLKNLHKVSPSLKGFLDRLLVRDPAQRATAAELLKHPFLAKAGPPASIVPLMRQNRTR

[14] = target: Serine/threonine-protein kinase pim-1 (Homo sapiens) (UniProt P11309); assay: Inhibition of PIM1 (unknown origin) at 1 uM
[15] = target: Protein kinase C alpha type (Homo sapiens) (UniProt P17252); assay: Inhibition of PKCalpha (unknown origin) at 1 uM
[16] = target: Serine/threonine-protein kinase PLK3 (Homo sapiens) (UniProt Q9H4B4); assay: Inhibition of PLK3 (unknown origin) at 1 uM
Chain of Serine/threonine-protein kinase PLK3 (Homo sapiens) (Q9H4B4 whole entry, looked up): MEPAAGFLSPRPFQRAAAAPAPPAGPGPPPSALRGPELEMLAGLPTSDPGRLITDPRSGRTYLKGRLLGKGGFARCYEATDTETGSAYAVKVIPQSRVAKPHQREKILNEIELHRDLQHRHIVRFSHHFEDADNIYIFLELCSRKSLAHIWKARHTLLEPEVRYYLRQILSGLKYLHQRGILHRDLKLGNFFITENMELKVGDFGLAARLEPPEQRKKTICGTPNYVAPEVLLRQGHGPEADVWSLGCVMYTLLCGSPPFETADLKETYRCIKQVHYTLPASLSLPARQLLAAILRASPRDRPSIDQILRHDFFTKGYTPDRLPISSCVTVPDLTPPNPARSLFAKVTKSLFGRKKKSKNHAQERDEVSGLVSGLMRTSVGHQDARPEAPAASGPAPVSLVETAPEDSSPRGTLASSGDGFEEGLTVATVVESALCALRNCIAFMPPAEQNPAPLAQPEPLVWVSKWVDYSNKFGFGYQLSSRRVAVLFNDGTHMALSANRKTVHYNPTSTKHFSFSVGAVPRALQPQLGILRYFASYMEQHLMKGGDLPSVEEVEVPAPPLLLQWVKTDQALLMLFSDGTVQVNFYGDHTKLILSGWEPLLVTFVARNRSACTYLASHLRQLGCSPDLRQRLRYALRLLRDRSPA

[17] = target: Proto-oncogene tyrosine-protein kinase receptor Ret (Homo sapiens) (UniProt P07949); assay: Inhibition of RET (unknown origin) at 1 uM
Chain of Proto-oncogene tyrosine-protein kinase receptor Ret (Homo sapiens) (P07949 whole entry): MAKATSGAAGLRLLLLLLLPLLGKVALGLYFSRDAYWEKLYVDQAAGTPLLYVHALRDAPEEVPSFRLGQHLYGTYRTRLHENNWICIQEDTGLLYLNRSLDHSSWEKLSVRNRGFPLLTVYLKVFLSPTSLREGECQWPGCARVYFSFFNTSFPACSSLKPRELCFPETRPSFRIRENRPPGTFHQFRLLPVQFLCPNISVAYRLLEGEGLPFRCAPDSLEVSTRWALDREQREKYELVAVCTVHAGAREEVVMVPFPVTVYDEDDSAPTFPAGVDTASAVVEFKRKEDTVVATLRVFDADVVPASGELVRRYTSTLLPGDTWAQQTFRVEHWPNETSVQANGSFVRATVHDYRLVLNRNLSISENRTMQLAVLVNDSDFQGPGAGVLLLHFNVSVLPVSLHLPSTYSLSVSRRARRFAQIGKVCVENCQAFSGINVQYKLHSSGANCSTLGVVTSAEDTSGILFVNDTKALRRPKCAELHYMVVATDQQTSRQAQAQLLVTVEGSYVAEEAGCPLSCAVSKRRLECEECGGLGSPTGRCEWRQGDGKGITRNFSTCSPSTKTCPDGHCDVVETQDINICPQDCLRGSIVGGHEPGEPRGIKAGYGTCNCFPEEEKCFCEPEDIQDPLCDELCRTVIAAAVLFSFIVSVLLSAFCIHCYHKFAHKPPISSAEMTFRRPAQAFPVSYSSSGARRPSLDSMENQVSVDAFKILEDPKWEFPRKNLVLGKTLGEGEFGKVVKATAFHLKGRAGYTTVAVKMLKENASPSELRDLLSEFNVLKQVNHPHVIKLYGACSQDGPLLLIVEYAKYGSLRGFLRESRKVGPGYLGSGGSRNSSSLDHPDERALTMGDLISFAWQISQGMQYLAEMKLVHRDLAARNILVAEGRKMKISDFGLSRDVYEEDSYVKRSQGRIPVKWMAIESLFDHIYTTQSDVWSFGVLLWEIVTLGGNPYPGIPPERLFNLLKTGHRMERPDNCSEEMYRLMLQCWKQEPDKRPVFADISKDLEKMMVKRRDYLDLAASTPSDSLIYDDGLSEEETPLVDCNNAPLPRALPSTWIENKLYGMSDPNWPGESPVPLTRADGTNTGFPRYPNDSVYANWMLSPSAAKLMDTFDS

[18] = target: Rho-associated protein kinase 2 (Homo sapiens) (UniProt O75116); assay: Inhibition of ROCK2 (unknown origin) at 1 uM
Chain of Rho-associated protein kinase 2 (Homo sapiens) (O75116 whole entry, looked up): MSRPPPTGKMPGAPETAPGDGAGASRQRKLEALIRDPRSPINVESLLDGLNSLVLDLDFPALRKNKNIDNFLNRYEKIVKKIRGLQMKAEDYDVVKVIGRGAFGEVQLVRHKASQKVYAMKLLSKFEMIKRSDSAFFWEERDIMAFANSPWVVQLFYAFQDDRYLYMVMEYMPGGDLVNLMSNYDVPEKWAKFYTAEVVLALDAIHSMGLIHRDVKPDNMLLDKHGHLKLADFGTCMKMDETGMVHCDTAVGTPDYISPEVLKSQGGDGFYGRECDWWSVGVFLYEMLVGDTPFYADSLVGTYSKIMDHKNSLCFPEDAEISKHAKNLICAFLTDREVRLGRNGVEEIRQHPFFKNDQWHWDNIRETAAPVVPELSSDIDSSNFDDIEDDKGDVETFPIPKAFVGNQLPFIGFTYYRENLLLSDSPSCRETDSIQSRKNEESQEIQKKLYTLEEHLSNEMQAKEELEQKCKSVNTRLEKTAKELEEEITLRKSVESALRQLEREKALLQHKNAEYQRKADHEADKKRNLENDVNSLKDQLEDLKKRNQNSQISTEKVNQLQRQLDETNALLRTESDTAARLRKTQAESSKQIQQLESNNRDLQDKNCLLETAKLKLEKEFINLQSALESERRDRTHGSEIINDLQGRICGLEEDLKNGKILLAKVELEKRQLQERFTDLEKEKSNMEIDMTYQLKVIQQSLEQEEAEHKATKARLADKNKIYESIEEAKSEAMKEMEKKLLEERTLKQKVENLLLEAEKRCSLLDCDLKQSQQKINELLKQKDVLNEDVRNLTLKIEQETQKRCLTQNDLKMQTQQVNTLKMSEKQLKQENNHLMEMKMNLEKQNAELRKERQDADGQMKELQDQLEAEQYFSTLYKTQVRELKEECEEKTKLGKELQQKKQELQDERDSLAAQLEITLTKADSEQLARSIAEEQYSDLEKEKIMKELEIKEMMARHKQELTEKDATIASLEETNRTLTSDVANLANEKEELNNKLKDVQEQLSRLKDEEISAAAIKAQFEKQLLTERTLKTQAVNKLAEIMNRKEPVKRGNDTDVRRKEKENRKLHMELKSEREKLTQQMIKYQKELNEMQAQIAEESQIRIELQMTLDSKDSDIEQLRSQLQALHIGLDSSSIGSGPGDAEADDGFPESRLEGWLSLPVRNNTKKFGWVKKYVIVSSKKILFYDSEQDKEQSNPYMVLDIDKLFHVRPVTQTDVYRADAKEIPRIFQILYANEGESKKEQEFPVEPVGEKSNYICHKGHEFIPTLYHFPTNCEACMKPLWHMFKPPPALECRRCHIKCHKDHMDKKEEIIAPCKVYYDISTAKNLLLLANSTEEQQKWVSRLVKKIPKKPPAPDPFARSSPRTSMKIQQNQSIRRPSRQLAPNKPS

[19] = target: Proto-oncogene tyrosine-protein kinase Src (Homo sapiens) (UniProt P12931); assay: Inhibition of SRC (unknown origin) at 1 uM
[20] = target: Tyrosine-protein kinase SYK (Homo sapiens) (UniProt P43405); assay: Inhibition of SYK (unknown origin) at 1 uM
[21] = target: Mitogen-activated protein kinase 8 (Rattus norvegicus) (UniProt P49185); assay: Inhibition of albumin-conjugated palmitate-induced JNK1/2 phosphorylation assessed as JNK phosphorylation level in rat RINm5F cells incubated for 8 hrs; type: cell-based
Chain of Mitogen-activated protein kinase 8 (Rattus norvegicus) (P49185 whole entry): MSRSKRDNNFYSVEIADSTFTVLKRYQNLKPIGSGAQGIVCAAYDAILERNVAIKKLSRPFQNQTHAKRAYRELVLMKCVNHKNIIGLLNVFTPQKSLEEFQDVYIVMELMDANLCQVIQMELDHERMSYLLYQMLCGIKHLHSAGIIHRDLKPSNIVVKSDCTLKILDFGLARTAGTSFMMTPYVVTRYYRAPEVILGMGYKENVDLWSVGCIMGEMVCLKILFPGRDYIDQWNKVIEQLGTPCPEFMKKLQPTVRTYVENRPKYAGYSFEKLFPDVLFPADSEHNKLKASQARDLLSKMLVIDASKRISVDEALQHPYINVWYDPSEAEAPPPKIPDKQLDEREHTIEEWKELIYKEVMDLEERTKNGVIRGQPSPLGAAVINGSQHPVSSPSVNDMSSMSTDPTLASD

[22] = target: Mitogen-activated protein kinase 8 (Rattus norvegicus) (UniProt P49185); assay: Inhibition of JNK1 phosphorylation in rat RINm5F cells assessed as suppression of albumin-conjugated palmitate-induced IRS-1 Ser307 phosphorylation incubated for 8 hrs; type: cell-based; design: concentration or dose not given beside the values; conditions: concentration not given here

For `Cn1c(=O)c(Oc2ccc(F)cc2F)cc2cnc(NC3CCN(S(N)(=O)=O)CC3)nc21`, the inhibition [1] was 17%, the inhibition [2] was 16% and the inhibition [3] was 10%. For the same compound, the inhibition [4] was 17%, the inhibition [5] was 22% and the inhibition [6] was 85%. For the same compound, the inhibition [7] was 8%, the inhibition [8] was 13% and the inhibition [9] was 11%. For the same compound, the inhibition [10] was 8%, the inhibition [11] was 9% and the inhibition [12] was 16%. The inhibition [13] was 32%, the inhibition [14] was 6% and the inhibition [15] was 10%. It also gave an inhibition [16] of 4%, an inhibition [17] of 30% and an inhibition [18] of 13%. For the same compound, the inhibition [19] was 7%, the inhibition [20] was 14% and the inhibition [21] was “inactive”. It also gave an inhibition [22] of 96%.
